Test results published in patent US12655088B2, “Compound for treating Alzheimer's disease” (XIAMEN UNIVERSITY, priority 2020, dated 2026).
One block for each molecule: values may come before it.

Tests used:
[1] = molecular target: T1, USP25 (His-USP25^a.a.157-706 recombinant protein, deubiquitinase catalytic domain) (Homo sapiens, UniProt Q9UHP3); experiment: Screening of USP25 inhibitors with Ubiquitin-Rhodamine 110; details: 10 μM compound, 33.3 nM His-USP25^157-706, 133.3 nM Ubiquitin-Rhodamine 110
T1 sequence (Q9UHP3 157-706): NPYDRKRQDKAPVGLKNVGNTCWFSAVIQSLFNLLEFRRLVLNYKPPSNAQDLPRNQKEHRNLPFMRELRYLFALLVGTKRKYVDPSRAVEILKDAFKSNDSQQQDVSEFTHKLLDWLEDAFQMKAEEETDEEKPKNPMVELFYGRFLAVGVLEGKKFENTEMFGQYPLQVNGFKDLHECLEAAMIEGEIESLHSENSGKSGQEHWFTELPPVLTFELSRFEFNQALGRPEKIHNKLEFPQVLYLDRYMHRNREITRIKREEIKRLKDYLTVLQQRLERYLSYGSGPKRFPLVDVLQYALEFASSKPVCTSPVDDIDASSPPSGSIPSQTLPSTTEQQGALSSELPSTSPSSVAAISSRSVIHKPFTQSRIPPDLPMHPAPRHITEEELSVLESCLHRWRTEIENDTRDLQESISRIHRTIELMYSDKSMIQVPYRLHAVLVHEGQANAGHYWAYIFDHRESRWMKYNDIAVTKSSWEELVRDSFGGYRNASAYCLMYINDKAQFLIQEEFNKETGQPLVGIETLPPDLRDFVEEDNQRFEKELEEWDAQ
Excerpt: And then, the fluorescence intensity of Ubiquitin-Rhodamine 110 was detected by a Tecan Spark multifunctional microplate reader (Tecan, Switzerland).

[2] = system: Mouse microglial cell line BV2; experiment: LPS-induced inflammatory response in microglia cell line BV2 (real-time PCR of Il1b); format: cell-based; details: 10 μM compound
Method: Mouse microglial cell line BV2 was treated with 25 ng/mL lipopolysaccharide (LPS) and 10 μM MZ3, respectively.
(§1) After the cells were treated for 24 hours, RNAs were extracted by TRIzol (Thermo Fisher Scientific), and then reverse-transcribed using Rever Tra Ace qPCR RT Kit (TOYOBO), and real-time fluorescence quantification PCR was performed using FastStart Universal SYBR Green Master (Roche) to detect the transcription levels of inflammation-related gene Il1b.
as §1, with “12” for “24”
Mouse microglial cell line BV2 was treated with 100 ng/mL lipopolysaccharide (LPS) and 10 μM MZ24, MZ25, MZ26, MZ28, MZ29 and MZ31, respectively.

[3] = system: microglia of C57BL/6 mice; experiment: LPS-induced inflammatory response of primary microglia (real-time PCR of Il1b and Il6); format: cell-based; details: 50 ng/mL LPS, 10 μM compound, 6 hours
Method: as §1, with “6” for “24”, “genes Il1b and Il6.” for “gene Il1b.”
as §1, with “6” for “24”

deubiquitinase activity of USP25 (Ubiquitin-Rhodamine 110 fluorescence intensity) [1]: can significantly inhibit
SMILES: O=Cc1ccc(OCc2ccc(F)c(C(F)(F)F)c2)c(OC(F)F)c1 [MZ40]

deubiquitinase activity of USP25 (Ubiquitin-Rhodamine 110 fluorescence intensity) [1]: can significantly inhibit
SMILES: COc1ccc(CNCCO)cc1OCc1ccc(F)c(C(F)(F)F)c1 [MZ71]

deubiquitinase activity of USP25 (Ubiquitin-Rhodamine 110 fluorescence intensity) [1]: can significantly inhibit
SMILES: COc1cc(OC)c(C=O)c(OCc2cc(C(F)(F)F)cc(C(F)(F)F)c2)c1 [MZ41]

deubiquitinase activity of USP25 (Ubiquitin-Rhodamine 110 fluorescence intensity) [1]: can significantly inhibit
SMILES: COc1cc(OC)c(CNCCO)c(OCc2ccc(F)c(C(F)(F)F)c2)c1 [MZ68]

deubiquitinase activity of USP25 (Ubiquitin-Rhodamine 110 fluorescence intensity) [1]: can significantly inhibit
SMILES: OCCNCc1ccccc1OCc1cc(C(F)(F)F)cc(C(F)(F)F)c1 [MZ67]

deubiquitinase activity of USP25 (Ubiquitin-Rhodamine 110 fluorescence intensity) [1]: can significantly inhibit
SMILES: O=Cc1ccc(OC(F)F)c(OCc2cc(C(F)(F)F)cc(C(F)(F)F)c2)c1 [MZ42]

deubiquitinase activity of USP25 (Ubiquitin-Rhodamine 110 fluorescence intensity) [1]: can significantly inhibit
SMILES: NCc1cc(Br)ccc1OCc1ccc(F)c(C(F)(F)F)c1 [XMU1, (5-bromo-2-((4-fluoro-3-(trifluoromethyl)benzyl)oxy)phenyl)methanamine]
LPS-induced Il1b expression [3]: can significantly reduce

deubiquitinase activity of USP25 (Ubiquitin-Rhodamine 110 fluorescence intensity) [1]: can significantly inhibit
SMILES: COc1cc(OC)c(C=O)c(OCc2ccc(F)c(C(F)(F)F)c2)c1 [MZ43]

deubiquitinase activity of USP25 (Ubiquitin-Rhodamine 110 fluorescence intensity) [1]: can significantly inhibit
SMILES: OCCNCc1cc(Br)ccc1NCc1cccc(OC(F)(F)F)c1 [MZ77]
LPS-induced Il1b expression [3]: can significantly reduce

deubiquitinase activity of USP25 (Ubiquitin-Rhodamine 110 fluorescence intensity) [1]: can significantly inhibit
SMILES: OCCNCc1ccccc1NCc1ccc(F)c(C(F)(F)F)c1 [MZ74]

deubiquitinase activity of USP25 (Ubiquitin-Rhodamine 110 fluorescence intensity) [1]: can significantly inhibit
SMILES: O=Cc1cc(Br)ccc1OCc1cc(F)c(F)cc1F [MZ38]

deubiquitinase activity of USP25 (Ubiquitin-Rhodamine 110 fluorescence intensity) [1]: can significantly inhibit
SMILES: O=Cc1cc(Br)ccc1OCc1ccc(F)c(C(F)(F)F)c1 [MZ39, 5-bromo-2-(4-fluoro-3-(trifluoromethyl)benzyloxy)benzaldehyde]

deubiquitinase activity of USP25 (Ubiquitin-Rhodamine 110 fluorescence intensity) [1]: can significantly inhibit
SMILES: Fc1ccc(COc2ccc(Br)cc2CNCCC2CCN(Cc3ccccc3)CC2)cc1C(F)(F)F [MZ37]

deubiquitinase activity of USP25 (Ubiquitin-Rhodamine 110 fluorescence intensity) [1]: can significantly inhibit
SMILES: Fc1ccc(COc2ccc(Br)cc2CN(CCC2CCN(Cc3ccccc3)CC2)Cc2cc(Br)ccc2OCc2ccc(F)c(C(F)(F)F)c2)cc1C(F)(F)F [MZ36]

deubiquitinase activity of USP25 (Ubiquitin-Rhodamine 110 fluorescence intensity) [1]: can significantly inhibit
SMILES: OCc1cc(Br)ccc1OCc1ccc(F)c(C(F)(F)F)c1 [MZ35]

deubiquitinase activity of USP25 (Ubiquitin-Rhodamine 110 fluorescence intensity) [1]: can significantly inhibit
SMILES: COc1cc(OC)c(CNCCO)c(OCc2cc(C(F)(F)F)cc(C(F)(F)F)c2)c1 [MZ69]

deubiquitinase activity of USP25 (Ubiquitin-Rhodamine 110 fluorescence intensity) [1]: can significantly inhibit
SMILES: CCN(CC)CCNCc1cc(Br)ccc1OCc1cc(F)c(F)cc1F [MZ34]
LPS-induced Il1b expression ([2]; BV2, 50 ng/mL LPS, 12 hours): can significantly reduce

deubiquitinase activity of USP25 (Ubiquitin-Rhodamine 110 fluorescence intensity) [1]: can significantly inhibit
SMILES: OCCNCc1ccccc1OCc1ccc(F)c(C(F)(F)F)c1 [MZ66]

deubiquitinase activity of USP25 (Ubiquitin-Rhodamine 110 fluorescence intensity) [1]: can significantly inhibit
SMILES: OCCNCc1ccccc1NCc1cccc(OC(F)(F)F)c1 [MZ75]
LPS-induced Il1b expression [3]: can significantly reduce

deubiquitinase activity of USP25 (Ubiquitin-Rhodamine 110 fluorescence intensity) [1]: can significantly inhibit
SMILES: OCCNCc1cc(Br)ccc1NCc1ccc(F)c(C(F)(F)F)c1 [MZ76]
LPS-induced Il1b expression [3]: can significantly reduce

deubiquitinase activity of USP25 (Ubiquitin-Rhodamine 110 fluorescence intensity) [1]: can significantly inhibit
SMILES: COc1ccc(CNCCO)cc1OCc1cc(C(F)(F)F)cc(C(F)(F)F)c1 [MZ72]

The next lines start with the molecule.

SMILES: CCN1CCN(Cc2cc(Br)ccc2OCc2ccc(F)c(C(F)(F)F)c2)CC1 [MZ33]
deubiquitinase activity of USP25 (Ubiquitin-Rhodamine 110 fluorescence intensity) [1]: can significantly inhibit

SMILES: OCCNCc1ccc(OC(F)F)c(OCc2cc(C(F)(F)F)cc(C(F)(F)F)c2)c1 [MZ3]
LPS-induced Il1b expression ([2]; BV2, 25 ng/mL LPS, 24 hours): can significantly reduce
deubiquitinase activity of USP25 (Ubiquitin-Rhodamine 110 fluorescence intensity) [1]: can significantly inhibit

SMILES: OCCN1CCN(Cc2ccc(OC(F)F)c(OCc3cc(F)c(F)cc3F)c2)CC1 [MZ29]
LPS-induced Il1b expression ([2]; BV2, 100 ng/mL LPS, 12 hours): can significantly reduce
deubiquitinase activity of USP25 (Ubiquitin-Rhodamine 110 fluorescence intensity) [1]: can significantly inhibit

SMILES: Fc1cc(COc2ccc(Br)cc2CNCCc2c[nH]c3ccccc23)ccc1C(F)(F)F [MZ31]
LPS-induced Il1b expression ([2]; BV2, 100 ng/mL LPS, 12 hours): can significantly reduce
deubiquitinase activity of USP25 (Ubiquitin-Rhodamine 110 fluorescence intensity) [1]: can significantly inhibit

SMILES: CN1CCN(Cc2ccc(OC(F)F)c(OCc3cc(C(F)(F)F)cc(C(F)(F)F)c3)c2)CC1 [MZ23]
LPS-induced Il1b expression ([2]; BV2, 50 ng/mL LPS, 12 hours): can significantly reduce
deubiquitinase activity of USP25 (Ubiquitin-Rhodamine 110 fluorescence intensity) [1]: can significantly inhibit

SMILES: CCN(CC)CCNCc1ccc(OC(F)F)c(OCc2cc(F)c(F)cc2F)c1 [MZ27]
deubiquitinase activity of USP25 (Ubiquitin-Rhodamine 110 fluorescence intensity) [1]: can significantly inhibit

SMILES: OCCNCc1cc(Br)ccc1OCc1cc(C(F)(F)F)cc(C(F)(F)F)c1 [MZ1]
deubiquitinase activity of USP25 (Ubiquitin-Rhodamine 110 fluorescence intensity) [1]: can significantly inhibit

SMILES: COc1cc(OC)c(CN2CCN(CCO)CC2)c(OCc2cc(C(F)(F)F)cc(C(F)(F)F)c2)c1 [MZ24]
LPS-induced Il1b expression ([2]; BV2, 100 ng/mL LPS, 12 hours): can significantly reduce
deubiquitinase activity of USP25 (Ubiquitin-Rhodamine 110 fluorescence intensity) [1]: can significantly inhibit

SMILES: CN1CCN(Cc2ccc(OC(F)F)c(OCc3cc(F)c(F)cc3F)c2)CC1 [MZ28]
LPS-induced Il1b expression ([2]; BV2, 100 ng/mL LPS, 12 hours): can significantly reduce
deubiquitinase activity of USP25 (Ubiquitin-Rhodamine 110 fluorescence intensity) [1]: can significantly inhibit

SMILES: OCCN1CCN(Cc2ccc(OC(F)F)c(OCc3cc(C(F)(F)F)cc(C(F)(F)F)c3)c2)CC1 [MZ25]
LPS-induced Il1b expression ([2]; BV2, 100 ng/mL LPS, 12 hours): can significantly reduce
deubiquitinase activity of USP25 (Ubiquitin-Rhodamine 110 fluorescence intensity) [1]: can significantly inhibit

SMILES: Fc1cc(F)c(COc2cc(CN3CCc4ccccc4C3)ccc2OC(F)F)cc1F [MZ30]
deubiquitinase activity of USP25 (Ubiquitin-Rhodamine 110 fluorescence intensity) [1]: can significantly inhibit

SMILES: COc1cc(OC)c(CN2CCN(C)CC2)c(OCc2cc(C(F)(F)F)cc(C(F)(F)F)c2)c1 [MZ4]
deubiquitinase activity of USP25 (Ubiquitin-Rhodamine 110 fluorescence intensity) [1]: can significantly inhibit

SMILES: CCN(CC)CCNCc1ccc(OC(F)F)c(OCc2cc(C(F)(F)F)cc(C(F)(F)F)c2)c1 [MZ26]
LPS-induced Il1b expression ([2]; BV2, 100 ng/mL LPS, 12 hours): can significantly reduce
deubiquitinase activity of USP25 (Ubiquitin-Rhodamine 110 fluorescence intensity) [1]: can significantly inhibit

SMILES: COc1cc(OC)c(CNc2ccc(Br)cn2)c(OCc2cc(C(F)(F)F)cc(C(F)(F)F)c2)c1 [MZ5]
deubiquitinase activity of USP25 (Ubiquitin-Rhodamine 110 fluorescence intensity) [1]: can significantly inhibit

SMILES: Cc1ccc(OCc2ccc(F)c(C(F)(F)F)c2)c(CN2CCN(CCO)CC2)c1 [MZ32]
deubiquitinase activity of USP25 (Ubiquitin-Rhodamine 110 fluorescence intensity) [1]: can significantly inhibit
